biological target: PAFR (Homo sapiens, UniProt P25105); experiment: PAF Binding Assay (PAFR binding)
Sequence (P25105 whole entry): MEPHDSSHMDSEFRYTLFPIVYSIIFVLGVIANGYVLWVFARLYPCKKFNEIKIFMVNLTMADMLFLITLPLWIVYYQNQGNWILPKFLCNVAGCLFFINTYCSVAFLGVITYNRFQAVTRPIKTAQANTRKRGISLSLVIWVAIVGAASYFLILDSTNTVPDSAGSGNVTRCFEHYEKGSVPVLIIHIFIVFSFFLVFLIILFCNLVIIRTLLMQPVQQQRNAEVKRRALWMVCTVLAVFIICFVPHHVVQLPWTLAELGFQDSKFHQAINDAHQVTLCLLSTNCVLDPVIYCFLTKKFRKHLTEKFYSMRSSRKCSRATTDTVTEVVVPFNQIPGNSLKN

CCOc1ccc(S(=O)(=O)N[C@H]2CCC[C@@H](n3cnnc3)C2)cc1 [Compound 2Maa, 4-ethoxy-N-[(1S,3R)-3-(4H-1,2,4-triazol-4-yl)cyclohexyl]benzenesulfonamide] was tested. Which IC50 did it give?
Its IC50 is 0.039 µM.

Cc1nnc(C)n1[C@@H]1CCC[C@H](NS(=O)(=O)c2c(C(C)C)cc(C(C)C)cc2C(C)C)C1 [Compound 7d, N-[(1S,3R)-3-(3,5-dimethyl-4H-1,2,4-triazol-4-yl)cyclohexyl]-2,4,6-triisopropylbenzenesulfonamide] was tested. Which IC50 did it give?
The IC50 was 0.0098 µM.

How did the IC50 turn out when Cc1nncn1[C@@H]1CCC[C@H](NS(=O)(=O)c2ccc(-c3noc(C4CC4)n3)cc2F)C1 [Compound 2Ja, 4-(5-cyclopropyl-1,2,4-oxadiazol-3-yl)-2-fluoro-N-[(1S,3R)-3-(3-methyl-4H-1,2,4-triazol-4-yl)cyclohexyl]benzenesulfonamide] was run?
The IC50 was 0.022 µM.

Which IC50 does the source give for CCc1cc(-c2noc(C3CC3)n2)ccc1S(=O)(=O)N[C@@H]1C[C@H](n2cnnc2C)CC(F)(F)C1 [Compound 2Cbb, 4-(5-cyclopropyl-1,2,4-oxadiazol-3-yl)-N-[(1R,5S)-3,3-difluoro-5-(3-methyl-4H-1,2,4-triazol-4-yl)cyclohexyl]-2-ethylbenzenesulfonamide] here?
The IC50 was 0.0008 µM.

Which IC50 does the source give for CCc1cc(-c2ncc(COC)s2)ccc1S(=O)(=O)N[C@H]1CCC[C@@H](n2cnnc2)C1 [Compound 2Aba, 2-ethyl-4-[5-(methoxymethyl)-1,3-thiazol-2-yl]-N-[(1S,3R)-3-(4H-1,2,4-triazol-4-yl)cyclohexyl]benzenesulfonamide] here?
The IC50 was 0.041 µM.

CCc1cc(-n2cccn2)ccc1S(=O)(=O)N[C@H]1CCC[C@@H](n2cnnc2)C1 [Compound 6a, 2-ethyl-4-(1H-pyrazol-1-yl)-N-[(1S,3R)-3-(4H-1,2,4-triazol-4-yl)cyclohexyl]benzenesulfonamide] was tested. Which IC50 did it give?
Its IC50 is 0.068 µM.

With “3-(2-aminopyrimidin-4-yl)-N-[(1R,5S)-3,3-difluoro-5-(3-methyl-4H-1,2,4-triazol-4-yl)cyclohexyl]-5-(trifluoromethyl)benzenesulfonamide [Compound 9Ab]” as the compound, how does the IC50 read?
Its IC50 is 0.015 µM.

For O=S(=O)(N[C@H]1CCC[C@@H](n2cnnc2)C1)c1cc(F)cc(-c2cccc3cccnc23)c1 [Compound 3Fc, 3-fluoro-5-quinolin-8-yl-N-[(1S,3R)-3-(4H-1,2,4-triazol-4-yl)cyclohexyl]benzenesulfonamide], which IC50 is on record?
Its IC50 is 0.001 µM.

CCc1cc(-n2cnnn2)ccc1S(=O)(=O)N[C@H]1CCC[C@@H](n2cnnc2)C1 [Compound 5a, 2-ethyl-4-(1H-tetrazol-1-yl)-N-[(1S,3R)-3-(4H-1,2,4-triazol-4-yl)cyclohexyl]benzenesulfonamide] was tested. Which IC50 did it give?
Its IC50 is 0.815 µM.

O=S(=O)(N[C@H]1CCC[C@@H](n2cnnc2)C1)c1cc(-c2ccc3ccc(OCC(F)(F)F)nc3c2)cc(C(F)(F)F)c1 [Compound 3Aag, N-[(1S,3R)-3-(4H-1,2,4-triazol-4-yl)cyclohexyl]-3-[2-(2,2,2-trifluoroethoxy)quinolin-7-yl]-5-(trifluoromethyl)benzenesulfonamide] was tested. Which IC50 did it give?
The IC50 was 0.0049 µM.

With O=S(=O)(N[C@H]1CCC[C@@H](n2cnnc2)C1)c1ccc(-c2noc(C3CC3)n2)cc1 [Compound 2Ml, 4-(5-cyclopropyl-1,2,4-oxadiazol-3-yl)-N-[(1S,3R)-3-(4H-1,2,4-triazol-4-yl)cyclohexyl]benzenesulfonamide] as the compound, how does the IC50 read?
The IC50 was 0.243 µM.

Which IC50 does the source give for O=S(=O)(N[C@H]1CCC[C@@H](n2cnnc2)C1)c1cc(-c2cncc(F)c2)cc(C(F)(F)F)c1 [Compound 3Aac, 3-(5-fluoropyridin-3-yl)-N-[(1S,3R)-3-(4H-1,2,4-triazol-4-yl)cyclohexyl]-5-(trifluoromethyl)benzenesulfonamide] here?
The IC50 was 0.02 µM.

For CCc1cc(-c2ccc(C(F)(F)F)cc2C)ccc1S(=O)(=O)N[C@H]1CCC[C@@H](n2cnnc2)C1 [Compound 2Abn, 3-ethyl-2′-methyl-N-[(1S,3R)-3-(4H-1,2,4-triazol-4-yl)cyclohexyl]-4′-(trifluoromethyl)biphenyl-4-sulfonamide], which IC50 is on record?
Its IC50 is 0.022 µM.

O=S(=O)(N[C@H]1CCC[C@@H](n2cnnc2)C1)c1cc(-c2cccnc2)cc(C(F)(F)F)c1 [Compound 3Ar, 3-pyridin-3-yl-N-[(1S,3R)-3-(4H-1,2,4-triazol-4-yl)cyclohexyl]-5-(trifluoromethyl)benzenesulfonamide] was tested. Which IC50 did it give?
The IC50 was 0.032 µM.

For CCc1cc(-c2ccc(F)cc2F)ccc1S(=O)(=O)N[C@H]1CCC[C@@H](n2cnnc2)C1 [Compound 2Av, 3-ethyl-2′,4′-difluoro-N-[(1S,3R)-3-(4H-1,2,4-triazol-4-yl)cyclohexyl]biphenyl-4-sulfonamide], which IC50 is on record?
Its IC50 is 0.016 µM.

Which IC50 does the source give for CCc1cc(-c2cccc3cccnc23)cc(S(=O)(=O)N[C@H]2CCC[C@@H](n3cnnc3)C2)c1 [Compound 3Bd, 3-ethyl-5-quinolin-8-yl-N-[(1S,3R)-3-(4H-1,2,4-triazol-4-yl)cyclohexyl]benzenesulfonamide] here?
The IC50 was 0.0009 µM.

With CCc1cc(-c2cccc(OC)c2)ccc1S(=O)(=O)N[C@H]1CCC[C@@H](n2cnnc2)C1 [Compound 2Ar, 3-ethyl-3′-methoxy-N-[(1S,3R)-3-(4H-1,2,4-triazol-4-yl)cyclohexyl]biphenyl-4-sulfonamide] as the compound, how does the IC50 read?
The IC50 was 0.027 µM.

For CCc1cc(-c2cnc3ccnn3c2)ccc1S(=O)(=O)N[C@H]1CCC[C@@H](n2cnnc2)C1 [Compound 2Aau, 2-ethyl-4-pyrazolo[1,5-a]pyrimidin-6-yl-N-[(1S,3R)-3-(4H-1,2,4-triazol-4-yl)cyclohexyl]benzenesulfonamide], which IC50 is on record?
The IC50 was 0.244 µM.

O=S(=O)(N[C@@H]1C[C@H](n2cnnc2)CC(F)(F)C1)c1cc(-c2ccc(F)cc2)cc(C(F)(F)F)c1 [3 Cc] was tested. Which IC50 did it give?
The IC50 was 0.036 µM.

CCc1cc(-c2ccc(O)cc2)ccc1S(=O)(=O)N[C@H]1CCC[C@@H](n2cnnc2)C1 [Compound 2Aad, 3-ethyl-4′-hydroxy-N-[(1S,3R)-3-(4H-1,2,4-triazol-4-yl)cyclohexyl]biphenyl-4-sulfonamide] was tested. Which IC50 did it give?
The IC50 was 0.036 µM.

CCc1cc(-c2cc(Cl)cn3ccnc23)ccc1S(=O)(=O)N[C@H]1CCC[C@@H](n2cnnc2)C1 [Compound 2Aat, 4-(6-chloroimidazo[1,2-a]pyridin-8-yl)-2-ethyl-N-[(1S,3R)-3-(4H-1,2,4-triazol-4-yl)cyclohexyl]benzenesulfonamide] was tested. Which IC50 did it give?
Its IC50 is 0.0022 µM.

With CCc1cc(-c2c(OC)cccc2OC(F)(F)F)ccc1S(=O)(=O)N[C@H]1CCC[C@@H](n2cnnc2)C1 [Compound 2Aab, 3-ethyl-2′-methoxy-N-[(1S,3R)-3-(4H-1,2,4-triazol-4-yl)cyclohexyl]-6′-(trifluoromethoxy)biphenyl-4-sulfonamide] as the compound, how does the IC50 read?
Its IC50 is 0.054 µM.

Which IC50 does the source give for O=S(=O)(N[C@H]1CCC[C@@H](n2cnnc2C2CC2)C1)c1ccc(-c2noc(C3CC(F)(F)C3)n2)cc1OC(F)(F)F [Compound 2Bd, N-[(1S,3R)-3-(3-cycloropyl-4H-1,2,4-triazol-4-yl)cyclohexyl]-4-[5-(3,3-difluorocyclobutyl)-1,2,4-oxadiazol-3-yl]-2-(trifluoromethoxy)benzenesulfonamide] here?
The IC50 was 0.0063 µM.

For Cc1nncn1[C@@H]1CCC[C@H](NS(=O)(=O)c2ccc(OCCCCF)cc2)C1 [Compound 2Nad, 4-(4-fluorobutoxy)-N-[(1S,3R)-3-(3-methyl-4H-1,2,4-triazol-4-yl)cyclohexyl]benzenesulfonamide], which IC50 is on record?
The IC50 was 0.011 µM.

O=S(=O)(N[C@H]1CCC[C@@H](n2cnnc2)C1)c1cc(-c2cccc3cnccc23)cc(C(F)(F)F)c1 [Compound 3Az, 3-isoquinolin-5-yl-N-[(1S,3R)-3-(4H-1,2,4-triazol-4-yl)cyclohexyl]-5-(trifluoromethyl)benzenesulfonamide] was tested. Which IC50 did it give?
Its IC50 is 0.01 µM.

With CC(C)Oc1ccc(-c2ccc(S(=O)(=O)N[C@H]3CCC[C@@H](n4cnnc4)C3)cc2F)cn1 [Compound 2Ee, 3-fluoro-4-(6-isopropoxypyridin-3-yl)-N-[(1S,3R)-3-(4H-1,2,4-triazol-4-yl)cyclohexyl]benzenesulfonamide] as the compound, how does the IC50 read?
The IC50 was 0.0051 µM.

CCc1cc(-c2noc(C3CC3)n2)ccc1S(=O)(=O)N[C@H]1CCC[C@@H](n2cnnc2C2CC2)C1 [Compound 2Ab, 4-(5-cyclopropyl-1,2,4-oxadiazol-3-yl)-2-ethyl-N-[(1S,3R)-3-(3-cycloropyl-4H-1,2,4-triazol-4-yl)cyclohexyl]benzenesulfonamide] was tested. Which IC50 did it give?
Its IC50 is 0.0032 µM.

For Cc1nncn1[C@H]1C[C@@H](NS(=O)(=O)c2cc(-c3cccc4cccnc34)cc(C(F)(F)F)c2)CC(F)(F)C1 [Compound 3Ca, N-[(1R,5S)-3,3-difluoro-5-(3-methyl-4H-1,2,4-triazol-4-yl)cyclohexyl]-3-quinolin-8-yl-5-(trifluoromethyl)benzenesulfonamide], which IC50 is on record?
Its IC50 is 0.0004 µM.

With O=S(=O)(N[C@H]1CCC[C@@H](n2cnnc2)C1)c1ccc(-c2ccc(OC(F)(F)F)cc2)c(F)c1 [Compound 2Ea, 2-fluoro-N-[(1S,3R)-3-(4H-1,2,4-triazol-4-yl)cyclohexyl]-4′-(trifluoromethoxy)biphenyl-4-sulfonamide] as the compound, how does the IC50 read?
The IC50 was 0.0058 µM.

How did the IC50 turn out when CCc1cc(-n2cnnc2C)ccc1S(=O)(=O)N[C@H]1CCC[C@@H](n2cnnc2)C1 [Compound 4b, 2-ethyl-4-(3-methyl-4H-1,2,4-triazol-4-yl)-N-[(1S,3R)-3-(4H-1,2,4-triazol-4-yl)cyclohexyl]benzenesulfonamide] was run?
Its IC50 is 9.8 µM.

With O=S(=O)(N[C@H]1CCC[C@@H](n2cnnc2)C1)c1cc(C(F)(F)F)cc(C(F)(F)F)c1 [2 Mb, N-[(1S,3R)-3-(4H-1,2,4-triazol-4-yl)cyclohexyl]-3,5-bis(trifluoromethyl)benzenesulfonamide] as the compound, how does the IC50 read?
Its IC50 is 0.28 µM.

Cc1nncn1[C@@H]1CCC[C@H](NS(=O)(=O)c2ccc(-c3ccc(OCC(F)(F)F)nc3)cc2F)C1 [Compound 2Jh, 2-fluoro-N-[(1S,3R)-3-(3-methyl-4H-1,2,4-triazol-4-yl)cyclohexyl]-4-[6-(2,2,2-trifluoroethoxy)pyridin-3-yl]benzenesulfonamide] was tested. Which IC50 did it give?
The IC50 was 0.0034 µM.

O=S(=O)(N[C@H]1CCC[C@@H](n2cnnc2)C1)c1cccc(OC(F)F)c1 [Compound 2Md, 3-(difluoromethoxy)-N-[(1S,3R)-3-(4H-1,2,4-triazol-4-yl)cyclohexyl]benzenesulfonamide] was tested. Which IC50 did it give?
The IC50 was 0.323 µM.

For “3-[1,2,4]triazolo[1,5-a]pyrimidin-7-yl-N-[(1R,5S)-3,3-difluoro-5-(3-methyl-4H-1,2,4-triazol-4-yl)cyclohexyl]-5-(trifluoromethyl)benzenesulfonamide [Compound 9Ac]”, which IC50 is on record?
The IC50 was 0.086 µM.

Reference: US9029377B2, “Platelet-activating factor receptor antagonists” (Merck Sharp & Dohme Corp., priority 2009, dated 2015)
